Assay results: patent publication US10954260B2, “Cymanquine compounds and derivatives thereof and uses thereof” (UNIVERSITY OF VERMONT AND STATE AGRICULTURAL COLLEGE, priority 2015, dated 2021)
Entries after “also recorded” stand apart in the source; their conditions may differ.

Experiments:
autophagy = details: low pH media, and bulky tumors in vivo; Pellegrini et al.; cited from earlier work
RWPE-1 = assay: Cytotoxicity assay (MTS cell viability, 72 h) in normal prostate epithelial cells; type: cell-based, human; details: normal pH
Protocol: (§1) Materials and Methods. Cell lines and reagents. Human cancer cell lines ACHN (kidney adenocarcinoma), BxPC3 (pancreatic adenocarcinoma), DU145 (prostate carcinoma), HT29 (colorectal adenocarcinoma), Jurkat (T-cell lymphoma), LNCaP (androgen sensitive prostate adenocarcinoma), PC3 (androgen insensitive prostate adenocarcinoma), SB1A (melanoma), and T47D (breast infiltrating ductal carcinoma) were cultured RPMI 1640 (Mediatech, Inc., Manassas, Va.) supplemented with 10% fetal bovine serum, 1% penicillin/streptomycin/amphotericin B solution, 1 mM sodium pyruvate, 1% MEM non-essential amino acid solution, and 2 mM L-glutamine at 37° C. in a 5% CO2, humidified incubator. All supplements were purchased from HyClone™ (Logan, Utah). […] The resulting pH was measured to be 6.72±0.06 in the absence of cells. […]
(§2) Cytotoxicity assay. […] Viability was measured by the CellTiter 96 AQueous Non-Radioactive Cell Proliferation Assay (Promega, Madison, Wis.) according to manufacturer's instruction. Briefly, 20 μL of MTS/PMS reagent was added to each tissue culture well, and incubated at 37° C. for a minimum of 2 hours, or until the maximum absorbance at 490 nm on the plate (wells with highest cell numbers) reached a value greater than 0.6. Absorbance was measured on a Perkin-Elmer Victor X4 multi-label plate reader. […]

LC3-II = assay: Western blotting for LC3 isoforms in SB1A cells; type: cell-based, human; details: 24 h
Protocol: (§3) FIG. 10. Evidence of lysosomal accumulation and cytotoxicity obtained through autophagy blockade by Cymanquine. A, SB1A cells were treated with various concentrations of Cymanquine or CQ for 24 h prior to western blotting for LC3 isoforms 1 and 2 (LC3-I and II—see text), respectively. […] B, SB1A cells stably expressing EGFP-LC3 were treated with indicated concentrations of CQ and Cymanquine for 4 h prior to fluorescence microscopy evaluation of EGFP-LC3 sub-cellular deposition. C-E, SB1A were treated with various concentrations of Cymanquine or CQ for 24 h prior to simultaneous staining with NBD-PZ and propidium iodide and analysis by flow cytometry. C, Live cells, sorted based on absence of propidium iodide staining (left panel, pentagonal gate) were analyzed for NBD-PZ staining, indicative of lysosomal content. B,C, The dose-response of Cymanquine and CQ on B, percentage of live cells (negative for propidium iodide staining), and C, NBD-PZ median fluorescence intensity of live cells. […]
(§4) Experiments aimed at elucidating the mechanism of action of Cymanquine were conducted. […] Preliminary quantitation of Cymanquine and CQ from isolated lysosomes of cells treated with equimolar quantities of either drug have been encouraging, showing a 60-fold higher accumulation of Cymanquine compared to CQ, as measured by HPLC-MS/MS.

[1] = test system: EGFP-LC3 fusion protein in SB1A cells; assay: Fluorescence microscopy of EGFP-LC3 sub-cellular distribution; type: cell-based, human; details: SB1A stably expressing EGFP-LC3, 4 h
Protocol: as §3, §4

SB1A cells = assay: Flow cytometry with NBD-PZ and propidium iodide staining; type: cell-based, human; details: 24 h
Protocol: FIG. 10. […] C, Live cells, sorted based on absence of propidium iodide staining (left panel, pentagonal gate) were analyzed for NBD-PZ staining, indicative of lysosomal content. […] Data in B,C presented as mean+/−SEM (n=3). *P<0.05, **P<0.001 by student's t-test.
Experiments aimed at elucidating the mechanism of action of Cymanquine were conducted. […] It is known that the blockade of autophagy results in the accumulation of neutralized lysosomes and of proteins normally cleared by autophagic flux.

[2] = test system: isolated lysosomes of cells; assay: Quantitation of drug from isolated lysosomes by HPLC-MS/MS; type: cell-based; details: preliminary, cells treated with equimolar quantities of either drug
Protocol: Experiments aimed at elucidating the mechanism of action of Cymanquine were conducted. […] It is known that the blockade of autophagy results in the accumulation of neutralized lysosomes and of proteins normally cleared by autophagic flux. FIG. 10 presents data that support a mechanism of action for Cymanquine as a weak base lysosomotropic autophagy inhibitor. […] The lysosomotropic fluorophore, NBD-PZ, was employed in conjunction with propidium iodide (PI) to simultaneously measure lysosomal accumulation, neutralization, and cell viability by flow cytometry on CQ and Cym treated SB1A cells (FIG. 10C-E). […] Furthermore, at the highest concentration of Cymanquine tested, NBD-PZ staining is reduced, due to either lysosome loss, or neutralization, as emission of this fluorophore is highly dependent upon pH. Preliminary quantitation of Cymanquine and CQ from isolated lysosomes of cells treated with equimolar quantities of either drug have been encouraging, showing a 60-fold higher accumulation of Cymanquine compared to CQ, as measured by HPLC-MS/MS.

[3] = test system: panel of human cancer cell lines; assay: Cytotoxicity assay (MTS cell viability, 72 h); type: cell-based
Protocol: as §1, §2

[4] = Cyclic voltammetry, anodic oxidation potentials; type: physicochemical; details: dichloromethane/0.05 M [NBu4][B(C6F5)4]
Protocol: Electrochemical studies were carried out. The electrolyte solution used for these studies, namely dichloromethane with 0.05 M [NBu4][B(C6F5)4] as the supporting electrolyte, is known to provide an optimum medium for the electrochemical oxidation of compounds containing the MnCp(CO)3 (Cp=η^5-C5H5) backbone (Laws et al., J. Am. Chem. Soc. 2008, 130, 9859). The potentials given here are referred to the ferrocene/ferrocenium reference couple. The experiments were carried out in a controlled atmosphere which minimizes exposure to oxygen and water. We refer to two types of standard electrochemical techniques that are commonly described in books on electrochemistry: cyclic voltammetry and bulk electrolysis (Bard, A. J.; Faulkner, L. R. Electrochemical Methods, John Wiley & Sons, New York, 2001, second edition) The former is useful for the analytical and gross mechanistic aspects of the electron-transfer properties of a compound, whereas the latter is most often employed for the electro-synthetic function of making isolable quantities of electrochemical oxidation or reduction products.
Anodic oxidation of the three compounds was investigated. […]
Table of potentials (vs ferrocene/ferrocenium (FcH)) measured by cyclic voltammetry for oxidation of compounds 3, 4, and 5 in dichloromethane/0.05 M [NBu4][B(C6F5)4]. […]

Compound | anti-autophagic efficacy (autophagy) | relative sensitivity of RWPE-1 compared to transformed cell lines (RWPE-1) | cell death at the highest concentrations tested (LC3-II) | accumulation of autophagy marker LC3-II (LC3-II; western blot) | subcellular distribution of EGFP-LC3 [1] | NBD-PZ staining (SB1A cells; highest concentration tested) | cytotoxicity (percentage of live cells, propidium iodide) (SB1A cells; low micromolar exposures) | lysosome content (NBD-PZ staining of live cells) (SB1A cells; low micromolar exposures) | accumulation in lysosomes compared to CQ [2] | cytotoxicity compared to CQ ([3]; low-pH (PIPES-supplemented) media) | cytotoxicity compared to CQ ([3]; normal pH growth conditions, listed as CMQ) | Ep(1) ([4]; first oxidation, anodic peak potential, irreversible) | E1/2(2) or Ep(2) ([4]; second oxidation, given as Ep (irreversible))
CCN(CC)CCCC(C)Nc1ccnc2cc(Cl)ccc12 (stereo not shown) [CQ, Chloroquine] | poor anti-autophagic efficacy |  |  |  |  |  |  |  |  |  |  |  | 
cymanquine [Compound 3] |  | most resistant | extensive cell death | dose-responsive accumulation | punctate EGFP-LC3 emission patterns | reduced | significant cytotoxicity | marked accumulation of lysosomes | 60 fold | more potent cytotoxicity than CQ | more potent cytotoxicity than CQ; also recorded: more potent single-agent cytotoxic properties than CQ | 0.82 V vs FcH | 1.25 V vs FcH
